Test results published in PubChem BioAssay AID2060509 (Molecular Pharmacology Branch, DTP, NCI, 2025).

Test system: 485176-168-R4-J1-PDC spheroids with HUVEC/MSC, viability
Assay: Anticancer human tumor 485176-168-R4-J1-PDC patient-derived pancreatic adenocarcinoma cell line growth inhibition [GQUAD]
Settings: for IC50: curve of first compound; for viability, T/C: stronger effect = lower value
Method in brief: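 Multi-cell-type spheroids of tumor cells with HUVEC and mesenchymal stem cells, treated with drug combinations. Concentrations descend in half-log steps from near clinical Cmax, or from 10 microM where Cmax is unknown; viability read-out.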
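Also: spheroids exposed to compounds for seven days before readout.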
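For viability, T/C in this document: percent viability relative to DMSO vehicle control wells as 100%.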

**Q.** What does the source list for `Cc1cccc(N(C)C(=O)C2C(O)CCN2c2nc(C)cc(C(F)(F)F)c2C#N)c1` (configuration not stated) + CN(C)c1ccc(Nc2c3ccc(NC(=O)CCN4CCCC4)cc3nc3cc(NC(=O)CCN4CCCC4)ccc23)cc1?
**A.** IC50 (second compound 0.0316 µM): > 10 µM; IC50 (second compound 0.1 µM): > 10 µM; IC50 (second compound 0.316 µM): > 10 µM; IC50 (second compound 1 µM): > 10 µM; IC50 (second compound 3.16 µM): > 10 µM; IC50 (second compound 10 µM): > 10 µM; viability, T/C (second compound 0.0316 µM, first compound 0.0316 µM): 103%; viability, T/C (second compound 0.0316 µM, first compound 0.1 µM): 93.5%; viability, T/C (second compound 0.0316 µM, first compound 0.316 µM): 86.2%; viability, T/C (second compound 0.0316 µM, first compound 1 µM): 105%; viability, T/C (second compound 0.0316 µM, first compound 3.16 µM): 111%; viability, T/C (second compound 0.0316 µM, first compound 10 µM): 102%; viability, T/C (second compound 0.1 µM, first compound 0.0316 µM): 91.9%; viability, T/C (second compound 0.1 µM, first compound 0.1 µM): 102%; viability, T/C (second compound 0.1 µM, first compound 0.316 µM): 98%; viability, T/C (second compound 0.1 µM, first compound 1 µM): 84.2%; viability, T/C (second compound 0.1 µM, first compound 3.16 µM): 94.3%; viability, T/C (second compound 0.1 µM, first compound 10 µM): 98.9%; viability, T/C (second compound 0.316 µM, first compound 0.0316 µM): 106%; viability, T/C (second compound 0.316 µM, first compound 0.1 µM): 89.1%; viability, T/C (second compound 0.316 µM, first compound 0.316 µM): 109%; viability, T/C (second compound 0.316 µM, first compound 1 µM): 109%; viability, T/C (second compound 0.316 µM, first compound 3.16 µM): 118%; viability, T/C (second compound 0.316 µM, first compound 10 µM): 94.3%; viability, T/C (second compound 1 µM, first compound 0.0316 µM): 93.5%; viability, T/C (second compound 1 µM, first compound 0.1 µM): 93.6%; viability, T/C (second compound 1 µM, first compound 0.316 µM): 104%; viability, T/C (second compound 1 µM, first compound 1 µM): 112%; viability, T/C (second compound 1 µM, first compound 3.16 µM): 101%; viability, T/C (second compound 1 µM, first compound 10 µM): 85.6%; viability, T/C (second compound 3.16 µM, first compound 0.0316 µM): 110%; viability, T/C (second compound 3.16 µM, first compound 0.1 µM): 95.4%; viability, T/C (second compound 3.16 µM, first compound 0.316 µM): 80.6%; viability, T/C (second compound 3.16 µM, first compound 1 µM): 94%; viability, T/C (second compound 3.16 µM, first compound 3.16 µM): 111%; viability, T/C (second compound 3.16 µM, first compound 10 µM): 98.2%; viability, T/C (second compound 10 µM, first compound 0.0316 µM): 97.3%; viability, T/C (second compound 10 µM, first compound 0.1 µM): 93%; viability, T/C (second compound 10 µM, first compound 0.316 µM): 81.1%; viability, T/C (second compound 10 µM, first compound 1 µM): 86.7%; viability, T/C (second compound 10 µM, first compound 3.16 µM): 62%; viability, T/C (second compound 10 µM, first compound 10 µM): 59.2%
